Source: patent US12570613B2, “Imidazoquinoline or benzoindazolone compound and intermediate for preparing same” (LMITO THERAPEUTICS INC., priority 2020, dated 2026)

Biological target: NQO1 protein (Homo sapiens, UniProt P15559)
Test: In vitro NQO1 enzyme activity assay (cytochrome C reduction, absorbance at 550 nm)
Type: biochemical
Conditions: NQO1 2 ng
Experimental: In order to evaluate the activity of the synthesized compound in NQO1, the experiments were performed as follows:
The synthesized compound was dissolved in DMSO to make a 10 mM stock solution, which was further diluted with DMSO to 250 μM so as to prepare a working solution. For experimental groups, the working solution of the compound was added to an enzyme reaction solution in which 50 μL of 1.54 mM Cytochrome C solution was added to 900 μL of 50 mM Tris-HCl (pH7.5) containing 0.14% BSA. For negative control groups, DMSO not containing the compound of the invention was added to the enzyme reaction solution as above. For each experimental and control group, 20 μL of 100 ng/mL NQO1 protein was added, and then 10 μL of 20 mM NADH was added to bring up the total volume to 1 mL. The change of absorbance was measured at 550 nm for 10 minutes using 1 mL cuvette. The kinetics of reaction was measured by the increase of absorbance as the cytochrome C was reduced at 550 nm over 10 minutes. The activity of NQO1 was measured by the amount of cytochrome C that is being reduced (nmol cytochrome C that was reduced/min/ug NQO1 protein). • Absorption coefficient of Cytochrome C: 21.1 (μmol/mL)^−1cm^−1 • BSA: Bovine Serum Albumin • […]: Tris(hydroxymethyl)aminomethane hydrochloride (buffer solution) • Equipment=Cary 100 UV-Vis Spectrophotometer • The results are shown in Tables 1 to 8.

NQO1 protein, sequence (P15559 whole entry, species assumed): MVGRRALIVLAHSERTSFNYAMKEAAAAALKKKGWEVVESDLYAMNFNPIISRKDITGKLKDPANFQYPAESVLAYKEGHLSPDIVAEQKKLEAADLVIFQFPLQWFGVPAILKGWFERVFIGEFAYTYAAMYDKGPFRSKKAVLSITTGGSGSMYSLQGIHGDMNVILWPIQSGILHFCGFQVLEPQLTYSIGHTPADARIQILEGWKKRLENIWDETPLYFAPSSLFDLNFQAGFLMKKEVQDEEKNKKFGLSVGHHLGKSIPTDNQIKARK

Compound	NQO1 activity assay Cytochrome C reduced/min/μg NQO1 protein (10 nM Compound (Table 1))	also measured
O=C1C(=O)c2ncc(-c3ccccc3)n2-c2ccccc21 [Compound 1, 1-Phenylimidazo[1,2-a]quinolin-4,5-dione]	658 nmol cytochrome C that was reduced/min/ug NQO1 protein	
O=C1C(=O)c2ncc(-c3ccc(F)cc3)n2-c2ccccc21 [Compound 2, 1-(4-Fluorophenyl)imidazo[1,2-a]quinolin-4,5-dione]	455 nmol cytochrome C that was reduced/min/ug NQO1 protein	
CC(C)c1cnc2n1-c1ccccc1C(=O)C2=O [Compound 3, 1-Isopropylimidazo[1,2-a]quinolin-4,5-dione]	755 nmol cytochrome C that was reduced/min/ug NQO1 protein	
O=C1C(=O)c2ncc(-c3ccc(C(F)(F)F)cc3)n2-c2ccccc21 [Compound 4, 1-(4-(Trifluoromethyl)phenyl)imidazo[1,2-a]quinoline-4,5-dione]	170 nmol cytochrome C that was reduced/min/ug NQO1 protein	
CCOC(=O)c1cn2c(n1)C(=O)C(=O)c1ccccc1-2 [Compound 5, Ethyl 4,5-dioxo-4,5-dihydroimidazo[1,2-a]quinolin-2-carboxylate]	816 nmol cytochrome C that was reduced/min/ug NQO1 protein	
CCOC(=O)c1nc2n(c1-c1ccccc1)-c1ccccc1C(=O)C2=O [Compound 6, Ethyl 4,5-dioxo-1-phenyl-4,5-dihydroimidazo[1,2-a]quinolin-2-carboxylate]	916 nmol cytochrome C that was reduced/min/ug NQO1 protein	
CN(C)C(=O)c1nc2n(c1-c1ccccc1)-c1ccccc1C(=O)C2=O [Compound 7, N,N-dimethyl-4,5-dioxo-1-phenyl-4,5-dihydroimidazo[1,2-a]quinolin-2-carboxamide]	96 nmol cytochrome C that was reduced/min/ug NQO1 protein	
CNC(=O)c1nc2n(c1-c1ccccc1)-c1ccccc1C(=O)C2=O [Compound 8, N-methyl-4,5-dioxo-1-phenyl-4,5-dihydroimidazo[1,2-a]quinolin-2-carboxamide]	112 nmol cytochrome C that was reduced/min/ug NQO1 protein	
Cc1nn(-c2ccccc2)c2c1C(=O)C(=O)c1ccccc1-2 [Compound 9, 3-Methyl-1-phenyl-1H-benzo[g]indazol-4,5-dione]	932 nmol cytochrome C that was reduced/min/ug NQO1 protein	NQO1 activity assay Cytochrome C reduced/min/μg NQO1 protein (50 nM Compound (Table 2)): 2093 nmol cytochrome C that was reduced/min/ug NQO1 protein; NQO1 activity assay Cytochrome C reduced/min/μg NQO1 protein (50 nM Compound (Table 3)): 3089 nmol cytochrome C that was reduced/min/ug NQO1 protein; NQO1 activity assay Cytochrome C reduced/min/μg NQO1 protein (50 nM Compound (Table 4)): 3864 nmol cytochrome C that was reduced/min/ug NQO1 protein; NQO1 activity assay Cytochrome C reduced/min/μg NQO1 protein (50 nM Compound (Table 5)): 3091 nmol cytochrome C that was reduced/min/ug NQO1 protein; NQO1 activity assay Cytochrome C reduced/min/μg NQO1 protein (50 nM Compound (Table 6)): 2885 nmol cytochrome C that was reduced/min/ug NQO1 protein; NQO1 activity assay Cytochrome C reduced/min/μg NQO1 protein (50 nM Compound (Table 7)): 2892 nmol cytochrome C that was reduced/min/ug NQO1 protein; NQO1 activity assay Cytochrome C reduced/min/μg NQO1 protein (50 nM Compound (Table 8)): 2709 nmol cytochrome C that was reduced/min/ug NQO1 protein
CC(C)c1nn(-c2ccccc2)c2c1C(=O)C(=O)c1ccccc1-2 [Compound 10, 3-Isopropyl-1-phenyl-1H-benzo[g]indazol-4,5-dione]	138 nmol cytochrome C that was reduced/min/ug NQO1 protein	
CCCCCCCc1nn(-c2ccccc2)c2c1C(=O)C(=O)c1ccccc1-2 [Compound 11, 3-Heptyl-1-phenyl-1H-benzo[g]indazol-4,5-dione]	203 nmol cytochrome C that was reduced/min/ug NQO1 protein	
O=C1C(=O)c2c(CCc3ccccc3)nn(-c3ccccc3)c2-c2ccccc21 [Compound 12, 3-Phenethyl-1-phenyl-1H-benzo[g]indazol-4,5-dione]	225 nmol cytochrome C that was reduced/min/ug NQO1 protein	
O=C1C(=O)c2c(-c3ccccc3)nn(-c3ccccc3)c2-c2ccccc21 [Compound 13, 1,3-Diphenyl-1H-benzo[g]indazol-4,5-dione]	198 nmol cytochrome C that was reduced/min/ug NQO1 protein	
O=C1C(=O)c2c(-c3ccc(F)cc3)nn(-c3ccccc3)c2-c2ccccc21 [Compound 14, 3-(4-Fluorophenyl)-1-phenyl-1H-benzo[g]indazol-4,5-dione]	156 nmol cytochrome C that was reduced/min/ug NQO1 protein	
O=C1C(=O)c2c(-c3ccc(F)c(F)c3)nn(-c3ccccc3)c2-c2ccccc21 [Compound 15, 3-(3,4-Difluorophenyl)-1-phenyl-1H-benzo[g]indazol-4,5-dione]	190 nmol cytochrome C that was reduced/min/ug NQO1 protein	
O=C1C(=O)c2c(CBr)nn(-c3ccccc3)c2-c2ccccc21 [Compound 16, 3-(Bromomethyl)-1-phenyl-1H-benzo[g]indazol-4,5-dione]	596 nmol cytochrome C that was reduced/min/ug NQO1 protein	
CN(C)Cc1nn(-c2ccccc2)c2c1C(=O)C(=O)c1ccccc1-2 [Compound 17, 3-((Dimethylamino)methyl)-1-phenyl-1H-benzo[g]indazol-4,5-dione]	254 nmol cytochrome C that was reduced/min/ug NQO1 protein	
COCc1nn(-c2ccccc2)c2c1C(=O)C(=O)c1ccccc1-2 [Compound 18, 3-(Methoxymethyl)-1-phenyl-1H-benzo[g]indazol-4,5-dione]	189 nmol cytochrome C that was reduced/min/ug NQO1 protein	
CC(C)OCc1nn(-c2ccccc2)c2c1C(=O)C(=O)c1ccccc1-2 [Compound 19, 3-(Isopropoxymethyl)-1-phenyl-1H-benzo[g]indazol-4,5-dione]	106 nmol cytochrome C that was reduced/min/ug NQO1 protein	
Cc1nn(C(C)C)c2c1C(=O)C(=O)c1ccccc1-2 [Compound 20, 1-Isopropyl-3-methyl-1H-benzo[g]indazol-4,5-dione]	918 nmol cytochrome C that was reduced/min/ug NQO1 protein	
Cc1c2c(nn1C(C)C)-c1ccccc1C(=O)C2=O [Compound 21, 2-Isopropyl-3-methyl-2H-benzo[g]indazol-4,5-dione]	925 nmol cytochrome C that was reduced/min/ug NQO1 protein	
Cc1nn(C)c2c1C(=O)C(=O)c1ccccc1-2 [Compound 22, 1,3-Dimethyl-1H-benzo[g]indazol-4,5-dione]	481 nmol cytochrome C that was reduced/min/ug NQO1 protein	
Cc1c2c(nn1C)-c1ccccc1C(=O)C2=O [Compound 23, 2,3-Dimethyl-2H-benzo[g]indazol-4,5-dione]	477 nmol cytochrome C that was reduced/min/ug NQO1 protein	
O=C1C(=O)c2c(Cn3ccnc3)nn(-c3ccccc3)c2-c2ccccc21 [Compound 24, 3-((1H-Imidazol-1-yl)methyl)-1-phenyl-1H-benzo[g]indazol-4,5-dione]	596 nmol cytochrome C that was reduced/min/ug NQO1 protein	
Cc1nn(-c2ccc(F)cc2)c2c1C(=O)C(=O)c1ccccc1-2 [Compound 25, 1-(4-Fluorophenyl)-3-methyl-1H-benzo[g]indazol-4,5-dione]	463 nmol cytochrome C that was reduced/min/ug NQO1 protein	
